Assay type in all cases: cell-based
For one assay, the system named is Ps. aeruginosa. Nature of the assay: MIC, two-fold serial agar dilution in Mueller-Hinton agar, group (G-)-III. Particulars: Pseudomonas aeruginosa, Ps. aeruginosa (6 strains), read-out: Geometric Mean of MIC. The method, then:
(§1) In the primary evaluation of the compounds of this invention, the Minimum Inhibitory Concentrations (MIC's) of the compounds were determined by the two-fold serial agar dilution method in Mueller-Hinton agar against 32 strains of test organisms in six groups.
(In agar dilution the substance is mixed into plates at graded concentrations.)

In assay [1] the test system is M. morganii, Ent. cloacae and Ser. marcescens. The assay is described as follows: MIC, two-fold serial agar dilution in Mueller-Hinton agar, group (G-)-II. Particulars: read-out: Geometric Mean of MIC. The method, then:
as §1
(G-)II: M. morganii (1 strain), Ent. cloacae (2 strains) and Ser.

For assay [2], the system named is Penicillinresistant S. aureus. The assay is described as follows: MIC, two-fold serial agar dilution in Mueller-Hinton agar, group (G+)-Ib. Particulars: Staphylococcus aureus, read-out: Geometric Mean of MIC. As to the method: as §1
(G+)Ib: Penicillinresistant S. aureus (5 strains)

For assay [3], the system named is Penicillinsensitive S. aureus. Nature of the assay: MIC, two-fold serial agar dilution in Mueller-Hinton agar, group (G+)-Ia. Particulars: Staphylococcus aureus, read-out: Geometric Mean of MIC. As to the method: as §1
The subject of assay [4] is Cephalothinsensitive E. coli, Kl. pneumoniae and Pr. mirabilis. The assay is described as follows: MIC, two-fold serial agar dilution in Mueller-Hinton agar, group (G-)-Ia. Particulars: read-out: Geometric Mean of MIC. The method, then:
as §1
(G-)Ia: Cephalothinsensitive E. coli (2 strains), Kl. pneumoniae (1
strain) and Pr. mirabilis (2 strains)

The subject of assay [5] is Cephalothinresistant E. coli and Kl. pneumoniae. Nature of the assay: MIC, two-fold serial agar dilution in Mueller-Hinton agar, group (G-)-Ib. Particulars: read-out: Geometric Mean of MIC. The method, then: as §1
(G-)Ib: Cephalothinresistant E. coli (3 strains) and Kl. pneumoniae (3

The mark [6] stands for this setting: (G-)-II, M. morganii (1), Ent. cloacae (2), Ser. marcescens (2 strains).
[7] abbreviates: (G+)-Ib, penicillin-resistant S. aureus (5 strains).
[8] abbreviates: (G+)-Ia, penicillin-sensitive S. aureus (5 strains).
Setting [9] is: (G-)-Ia, cephalothin-sensitive E. coli (2), Kl. pneumoniae (1), Pr. mirabilis (2 strains).

Values after ≈ are worked out from the molar mass of the structure shown. Where two headings read alike, the source gives them in different places.

In the case of `CCSc1scc[n+]1CC1=C(C(=O)[O-])N2C(=O)C(NC(=O)/C(=N\OC3(C(=O)O)CCC3)c3csc(N)n3)[C@H]2SC1` (stereo partly drawn) [Example 12, 7-[(Z)-2-(2-Aminothiazol-4-yl)-2-(1-carboxycyclobut-1-oxyimino)acetamido]-3-(2-ethylthiothiazolio)methyl-3-cephem-4-carboxylate], the MIC (as a rule, the lowest concentration that inhibits growth of the organism) came out at 5.7 µg/mL (≈ 9.12 µM) with Ps. aeruginosa; 0.4 µg/mL (≈ 0.64 µM) in assay [1] (setting [6]); 4.7 µg/mL (≈ 7.52 µM) in assay [2] (setting [7]); 1.8 µg/mL (≈ 2.88 µM) in assay [3] (setting [8]); 0.066 µg/mL (≈ 0.106 µM) in assay [4] (setting [9]); 0.79 µg/mL (≈ 1.26 µM) in assay [5].

Consider `Cc1csc[n+]1CC1=C(C(=O)[O-])N2C(=O)C(NC(=O)/C(=N\OC(C)(C)C(=O)O)c3csc(N)n3)C2SC1` (stereo not drawn) [Example 7, 7-[(Z)-2-(2-Aminothiazol-4-yl)-2-(2-carboxyprop-2-oxyimino)acetamido]-3-(4-methylthiazolio)methyl-3-cephem-4-carboxylate], for which the MIC with Ps. aeruginosa amounted to 4 µg/mL (≈ 7.06 µM); in assay [1] (setting [6]) it was 2.8 µg/mL (≈ 4.94 µM); in assay [2] (setting [7]) it was 12.5 µg/mL (≈ 22.1 µM); in assay [3] (setting [8]), 7.2 µg/mL (≈ 12.7 µM); in assay [4] (setting [9]), 0.076 µg/mL (≈ 0.134 µM); in assay [5], 1.8 µg/mL (≈ 3.18 µM).

With `COc1sc[n+](CC2=C(C(=O)[O-])N3C(=O)C(NC(=O)/C(=N\OC(C)(C)C(=O)O)c4csc(N)n4)C3SC2)c1C` (stereo not drawn) [Example 9, 7-[(Z)-2-(2-Aminothiazol-4-yl)-2-(2-carboxyprop-2-oxyimino)acetamido]-3-(5-methoxy-4-methylthiazolio)methyl-3-cephem-4-carboxylate], the MIC in the assay on Ps. aeruginosa is 6.3 µg/mL (≈ 10.6 µM); in assay [1] (setting [6]), 2.8 µg/mL (≈ 4.69 µM); in assay [2], 16 µg/mL (≈ 26.8 µM); in assay [3] (setting [8]), 9.5 µg/mL (≈ 15.9 µM); in assay [4] (setting [9]), 0.1 µg/mL (≈ 0.168 µM); in assay [5], 1.6 µg/mL (≈ 2.68 µM).

In the case of `C#CCO/N=C(\C(=O)NC1C(=O)N2C(C(=O)[O-])=C(C[n+]3ccsc3SC)CS[C@H]12)c1csc(N)n1` (stereo partly drawn) [Example 17, 7-[(Z)-2-(2-Aminothiazol-4-yl)-2-propargyloxyiminoacetamido]-3-(2-methylthiothiazolio)methyl-3-cephem-4-carboxylate], the minimum inhibitory concentration (MIC) was determined as 6.9 µg/mL (≈ 12.5 µM) in the assay with Ps. aeruginosa; 0.69 µg/mL (≈ 1.25 µM) in assay [1]; 0.8 µg/mL (≈ 1.45 µM) in assay [2]; 0.23 µg/mL (≈ 0.418 µM) in assay [3]; 0.66 µg/mL (≈ 1.2 µM) in assay [4]; 0.6 µg/mL (≈ 1.09 µM) in assay [5].

As to `Cc1c(CCO)sc[n+]1CC1=C(C(=O)[O-])N2C(=O)C(NC(=O)/C(=N\OC(C)(C)C(=O)O)c3csc(N)n3)C2SC1` (stereo not drawn) [Example 6, 7-[(Z)-2-(2-Aminothiazol-4-yl)-2-(2-carboxyprop-2-oxyimino)acetamido]-3-[5-(2-hydroxyethyl)-4-methylthiazolio]methyl-3-cephem-4-carboxylate], the MIC with Ps. aeruginosa was found to be 4.4 µg/mL (≈ 7.2 µM); in assay [1] (setting [6]), 2.8 µg/mL (≈ 4.58 µM); in assay [2] (setting [7]), 25 µg/mL (≈ 40.9 µM); in assay [3] (setting [8]), 8.3 µg/mL (≈ 13.6 µM); in assay [4] (setting [9]) it was 0.076 µg/mL (≈ 0.124 µM); in assay [5] it was 1.8 µg/mL (≈ 2.95 µM).

In the case of `CC(C)(O/N=C(\C(=O)NC1C(=O)N2C(C(=O)[O-])=C(C[n+]3ccsc3SCC(=O)O)CS[C@H]12)c1csc(N)n1)C(=O)O` (stereo partly drawn) [Example 13, 7-[(Z)-2-(2-Aminothiazol-4-yl)-2-(2-carboxyprop-2-oxyimino)acetamido]-3-(2-carboxymethylthiothiazolio)methyl-3-cephem-4-carboxylate], the MIC is 23 µg/mL (≈ 35.8 µM) with Ps. aeruginosa; 1.6 µg/mL (≈ 2.49 µM) in assay [1] (setting [6]); 50 µg/mL (≈ 77.8 µM) in assay [2] (setting [7]); 25 µg/mL (≈ 38.9 µM) in assay [3] (setting [8]); 0.26 µg/mL (≈ 0.405 µM) in assay [4] (setting [9]); 4 µg/mL (≈ 6.22 µM) in assay [5].

As to `CC(C)(O/N=C(\C(=O)NC1C(=O)N2C(C(=O)[O-])=C(C[n+]3ccsc3NC=O)CS[C@H]12)c1csc(N)n1)C(=O)O` (stereo partly drawn) [Example 14, 7-[2-(Z)-(2-Aminothiazol-4-yl)-2-(2-carboxyprop-2-yloxyimino)acetamido]-3-(2-formylaminothiazolio)methyl-3-cephem-4-carboxylate], the MIC amounted to 7 µg/mL (≈ 11.8 µM) in the assay with Ps. aeruginosa; 3.2 µg/mL (≈ 5.37 µM) in assay [1] (setting [6]); 12.5 µg/mL (≈ 21 µM) in assay [2] (setting [7]); 5.5 µg/mL (≈ 9.23 µM) in assay [3] (setting [8]); 0.15 µg/mL (≈ 0.252 µM) in assay [4] (setting [9]); 3.6 µg/mL (≈ 6.04 µM) in assay [5].

Consider `Cc1scc[n+]1CC1=C(C(=O)[O-])N2C(=O)C(NC(=O)/C(=N\OC3(C(=O)O)CCC3)c3csc(N)n3)[C@H]2SC1` (stereo partly drawn) [Example 11, 7-[(Z)-2-(2-Aminothiazol-4-yl)-2-(1-carboxycyclobut-1-oxyimino)acetamido]-3-(2-methylthiazolio)methyl-3-cephem-4-carboxylate], for which the MIC worked out at 2.1 µg/mL (≈ 3.63 µM) with Ps. aeruginosa; 0.4 µg/mL (≈ 0.691 µM) in assay [1] (setting [6]); 9.5 µg/mL (≈ 16.4 µM) in assay [2] (setting [7]); 4.2 µg/mL (≈ 7.26 µM) in assay [3] (setting [8]); 0.076 µg/mL (≈ 0.131 µM) in assay [4] (setting [9]); 1.6 µg/mL (≈ 2.77 µM) in assay [5].

With `CC(C)(O/N=C(\C(=O)NC1C(=O)N2C(C(=O)[O-])=C(C[n+]3ccsc3)CSC12)c1csc(N)n1)C(=O)O` (stereo not drawn) [Example 5, 7-[(Z)-2-(2-Aminothiazol-4-yl)-2-(2-carboxyprop-2-oxyimino)acetamido]-3-thiazoliomethyl-3-cephem-4-carboxylate], the MIC came to 3.1 µg/mL (≈ 5.61 µM) in the assay with Ps. aeruginosa; 3.6 µg/mL (≈ 6.51 µM) in assay [1]; 25 µg/mL (≈ 45.2 µM) in assay [2] (setting [7]); 8.3 µg/mL (≈ 15 µM) in assay [3] (setting [8]); 0.13 µg/mL (≈ 0.235 µM) in assay [4] (setting [9]); 2.5 µg/mL (≈ 4.52 µM) in assay [5].

With `CO/N=C(\C(=O)NC1C(=O)N2C(C(=O)[O-])=C(C[n+]3csc(CCN)c3C)CSC12)c1csc(N)n1` (stereo not drawn) [Example 10, 7-[(Z)-2-(2-Aminothiazol-4-yl)-2-methoxyiminoacetamido]-3-[5-(2-aminoethyl)-4-methylthiazolio]methyl-3-cephem-4-carboxylate], the MIC is 22 µg/mL (≈ 40.9 µM) in the assay with Ps. aeruginosa; 5.5 µg/mL (≈ 10.2 µM) in assay [1]; 6.3 µg/mL (≈ 11.7 µM) in assay [2] (setting [7]); 2.1 µg/mL (≈ 3.91 µM) in assay [3] (setting [8]); 0.8 µg/mL (≈ 1.49 µM) in assay [4] (setting [9]); 1.4 µg/mL (≈ 2.6 µM) in assay [5].

Take `CSc1scc(C)[n+]1CC1=C(C(=O)[O-])N2C(=O)C(NC(=O)/C(=N\OC(C)(C)C(=O)O)c3csc(N)n3)[C@H]2SC1` (stereo partly drawn) [Example 16, 7-[(Z)-2-(2-Aminothiazol-4-yl)-2-(2-carboxyprop-2-oxyimino)acetamido]-3-(4-methyl-2-methylthiothiazolio)methyl-3-cephem-4-carboxylate]: the MIC in the assay on Ps. aeruginosa is 2.8 µg/mL (≈ 4.57 µM); in assay [1] (setting [6]) it was 0.53 µg/mL (≈ 0.865 µM); in assay [2] (setting [7]) it was 19 µg/mL (≈ 31 µM); in assay [3] (setting [8]), 4.2 µg/mL (≈ 6.85 µM); in assay [4] (setting [9]) it was 0.1 µg/mL (≈ 0.163 µM); in assay [5], 0.79 µg/mL (≈ 1.29 µM).

As for `CC(C)(O/N=C(\C(=O)NC1C(=O)N2C(C(=O)[O-])=C(C[n+]3ccsc3N)CS[C@H]12)c1csc(N)n1)C(=O)O` (stereo partly drawn) [Example 8, 7-[(Z)-2-(2-Aminothiazol-4-yl)-2-(2-carboxyprop-2-oxyimino)acetamido]-3-(2-amino-3-thiazolio)methyl-3-cephem-4-carboxylate], the MIC in the assay with Ps. aeruginosa was found to be 5.6 µg/mL (≈ 9.87 µM); in assay [1] (setting [6]), 8.3 µg/mL (≈ 14.6 µM); in assay [2] (setting [7]), 14 µg/mL (≈ 24.7 µM); in assay [3] (setting [8]), 5.5 µg/mL (≈ 9.69 µM); in assay [4] (setting [9]) it was 0.15 µg/mL (≈ 0.264 µM); in assay [5], 4 µg/mL (≈ 7.05 µM).

As to `CNc1scc[n+]1CC1=C(C(=O)[O-])N2C(=O)C(NC(=O)/C(=N\OC(C)(C)C(=O)O)c3csc(N)n3)[C@H]2SC1` (stereo partly drawn) [Example 15, 7-[(Z)-2-(2-Aminothiazol-4-yl)-2-(2-carboxyprop-2-oxyimino)acetamido]-3-(2-methylaminothiazolio)methyl-3-cephem-4-carboxylate], the MIC with Ps. aeruginosa was found to be 13 µg/mL (≈ 22.3 µM); in assay [1], 3.6 µg/mL (≈ 6.19 µM); in assay [2] (setting [7]) it was 25 µg/mL (≈ 43 µM); in assay [3] (setting [8]), 7.2 µg/mL (≈ 12.4 µM); in assay [4] (setting [9]), 0.4 µg/mL (≈ 0.688 µM); in assay [5], 5.5 µg/mL (≈ 9.46 µM).

The values are drawn from patent publication US4507487A, “Chemical compounds” (Bristol-Myers Company, priority 1983, dated 1985).
